This is an account of results in patent publication US6660255B1, “Inhibition of gene transcription by polyamide DNA-binding ligands” (California Institute of Technology, priority 1997, dated 2003).

Data set [1] deals with TFIIIA. The data set is described as follows: footprint. The following applies: DNase I; binding inhibited >90% by 5 nM polyamide ImPyPyPy-γ-ImPyPyPy-β-Dp.
In data set [2] the test system is 5′-TGTTACA-3′. The data set is described as follows: Quantitative DNase I footprint titration, pJT2B2 fragment. Type of data set: binding.
Data set [3] has as its system LEF-1 DBD. Kind of data set: footprint. To be noted: 10 mM Hepes pH 7.5, 100 mM KCl.
In data set [4] the target is 5′-AGGTCT-3′ adjacent to the TATA box of the CMV MIEP. The data set is described as follows: Binding to the CMV MIEP next to the TATA element. Set-up: species or system human cytomegalovirus. To be noted: read-out: apparent dissociation constant. The source says: (§1) This method is a useful general approach for modulation of gene expression. For example, specific polyamides have been designed and synthesized that bind to double stranded DNA adjacent to the TATA element of the human cytomegalovirus major immediate early promoter (CMV MIEP). Polyamide CMV-1, ImImPyPy-γ-ImPyPyPy-β-Dp, binds the identified target sequence 5′-AGGTCT-3′, where the last T of this sequence is the 5′ T of the TATA element.

The subject of data set [5] is TBP binding and basal transcription at the CMV MIEP. Kind of data set: TBP binding and basal transcription, CMV MIEP. It counts as biochemical, human cytomegalovirus.
From the text: as §1

For data set [6], the target named is 5′AGAATGA-3′ in the human Her-2/neu promoter. The data set is described as follows: Binding downstream of the Her-2/neu TATA element. To be noted: read-out: apparent dissociation constant. The text has this:
(§2) In another example, a polyamide was designed to bind immediately downstream of the TATA element found in the human Her-2/neu breast cancer oncogene promoter. […] Her-2/neu is recognized to be over-expressed in several cancers, including human gynecologic adenocarcinomas, including those of the ovary, endometrium, breast, fallopian tube and cervix (Cirisano, F. D., & Karlan, B. Y., J. Soc. Gynecol. Investig. 3 99-105 (1996)).

The test system of data set [7] is TBP binding and transcription at the Her-2/neu promoter. Kind of data set: TBP binding and transcription, Her-2/neu promoter. Type of data set: biochemical, human.
From the text: as §2

Data set [8] concerns 5′-WGWWWCW-3′ target sequence. The following applies: hairpin conformation; Trauger et al. 1996; cited from earlier work.
Data set [9] concerns the target HIV-1 TATA element. Kind of data set: TBP binding to the HIV-1 TATA element. The protocol: TBP binds the HIV-1 TATA element with a Kd of ˜1-3 nM.
Data set [10] addresses TBP (rhTBP) (Homo sapiens, UniProt P20226 P20226:1-339). Kind of data set: EMSA; not inhibited by HIV-1 polyamide. To be noted: tags: Promega; label: 32P.

Molecule 5S RNA gene internal control region yielded a Kd in data set [1] of 1 nM. For the molecule `CN(C)CCCNC(=O)CCNC(=O)c1cc(NC(=O)c2cc(NC(=O)CCNC(=O)c3cc(NC(=O)c4nc(NC(=O)CCCNC(=O)c5cc(NC(=O)c6cc(NC(=O)CCNC(=O)c7cc(NC(=O)c8nccn8C)cn7C)cn6C)cn5C)cn4C)cn3C)cn2C)cn1C` [polyamide 6, ImPy-β-PyPy-γ-ImPy-β-PyPy-β-Dp], the “Equilibrium association constants, 5′-aTGTTACAt-3′” value in data set [2] (24° C., pH 7.0, 10 mM Tris.HCl, 10 mM KCl, 10 mM MgCl2, 5 mM CaCl2, mean (SD)) is given as “greater than 1×10^9 M^−1”. Besides, in data set [2] (polyamide 6 vs 9, polyamide 3 vs 7), the “fold higher affinity relative to unlinked analog” value is given as about 1000 fold. The molecule HIV-1 LEF-1 site L2 yielded a Kd in data set [3] (1 mM MgCl2) of 5.8 nM. With HIV-1 LEF-1 site L3, the Kd in data set [3] (1 mM MgCl2) is 4.9 nM. HIV-1 enhancer LEF-1 site L1 came in with a Kd in data set [3] (1 mM MgCl2, 1 mM DTT, 1.5 nM stated in p144) of 1.4 nM. In the case of ImImPyPy-γ-ImPyPyPy-β-Dp [CMV-1], the Kd in [4] worked out at 1 nM. For the same molecule, in data set [5], the “inhibition of TBP binding and basal transcription” value is “effective inhibitor”. Turning to ImPy-β-PyIm-γ-PyPy-β-PyPy-β-Dp [Her2-1], the Kd in data set [6] is 0.02 nM. Moreover, the “inhibition of TBP binding and transcription” value in data set [7] is given as “effective inhibitor”.

Take “ImPyPyPyPy-γ-ImPyPyPyPy-β-Dp [polyamide 3]”: the “affinity for seven base pair target sequence” value in [8] is reported as “subnanomolar”.

B1: TBP: TATA-box binding protein, recombinant human TBP (protein, UniProt P20226 1-339, looked up)
TATA-box-binding protein: MDQNNSLPPYAQGLASPQGAMTPGIPIFSPMMPYGTGLTPQPIQNTNSLSILEEQQRQQQQQQQQQQQQQQQQQQQQQQQQQQQQQQQQQQQQQQAVAAAAVQQSTSQQATQGTSGQAPQLFHSQTLTTAPLPGTTPLYPSPMTPMTPITPATPASESSGIVPQLQNIVSTVNLGCKLDLKTIALRARNAEYNPKRFAAVIMRIREPRTTALIFSSGKMVCTGAKSEEQSRLAARKYARVVQKLGFPAKFLDFKIQNMVGSCDVKFPIRLEGLVLTHQQFSSYEPELFPGLIYRMIKPRIVLLIFVSGKVVLTGAKVRAEIYEAFENIYPILKGFRKTT
B1 displayed a Kd in data set [9] of 1 to 3 nM.

B2: AdML TATA region oligo (dsDNA)
DNA 1: GATCGGGGGCTATAAAAGGGGGTGGG
DNA 2: CCCACCCCCTTTTATAGCCCCCGATC
Take B2: in data set [10], the binding result is “binds”.
